These results are taken from PubChem BioAssay AID1259407 (Chemical Carcinogenesis Research Information System (CCRIS), 2018).

Activity calls are given as the source filed them. No rule for the calls is given here.

This data set deals with CCRIS mutagenicity, Ames/micronucleus/aberration tests. The data set is described as follows: CCRIS mutagenicity studies.

`CCCCCC(C)[N+](=O)[O-]` (configuration not stated): for the setting “Test System: UDS RAT HEPATOCYTES, Strain/Indicator: THY INCORP, Metabolic Activation: NONE”, the mutagenic call was “active; positive”. With `CC(=O)Nc1cccc2cc(F)cnc12`, where the note is “Test System: AMES SALMONELLA TYPHIMURIUM, Strain/Indicator: TA100, Metabolic Activation: RAT, LIVER, S-9, PHENOBARBITAL AND 5,6-BENZOFLAVONE, Method: PREINCUBATION”, the mutagenic call is “active; positive”.
